In US8192951B2, “Glycolysis-inhibiting substances in cell culture” (Wyeth LLC, priority 2006, dated 2012):

Key:
α-GDF-8 cells [1] = assay: α-GDF-8 cells in 1 L Bioreactors in the presence of high glucose (Example 5); format: cell-based, Chinese Hamster; conditions: 0.5 g/L 2-deoxyglucose
Protocol: Materials and Methods: α-GDF-8 cells were grown in Medium 2 in 1 L Bioreactors and fed with Medium 3. The starting culture media were either supplemented or not with 0.5 g/L 2-deoxyglucose. The cells were fed on days 3, 5, 7, 10 and 12 to keep the glucose level at above approximately 8 g/L. The cultures lacking 2-deoxyglucose were shifted from 37° Celsius to 31° Celsius on day 4, while the cultures containing 2-deoxyglucose were shifted from 37° Celsius to 31° Celsius on day 5.

rats = conditions: fed to rats, without decreasing total food intake; cited from earlier work
α-GDF-8 cells [2] = assay: Lactate, growth, viability and titer of α-GDF-8 cells in culture dishes, two passages (Example 2); format: cell-based, Chinese Hamster; design: key to Gluc: glucose in g/L; viab: unit not given here
Protocol: Materials and Methods: α-GDF-8 cells were grown in culture dishes in Medium 1 containing approximately 6 g/L glucose with varying concentrations of 2-deoxyglucose. Some α-GDF-8 cultures were optionally supplemented with glucose to a final initial concentration of 9 g/L. Cells were passaged twice and grown for three days after each passage. At the end of three days, each of the passaged cultures was measured for viability, cell density, glucose levels, lactate levels and α-GDF-8 titer. Specific titer production rate (“Qp”) and specific lactate uptake rate (“Qlact”) were calculated. Qlact was calculated as follows: ((final lactate level−initial lactate level)/(final cell density−initial cell density))×growth rate×24, where lactate levels are measured in g/L, cell densities are measured in 10^6 cells/ml, growth rate is measured as l/h, and the final Qlact is calculated as mg/e6/day. Qp was calculated as follows: ((final titer−initial titer)/(final cell density−initial cell density))×growth rate×24, where titer is measured in mg/L, cell density is measured in 10^6 cells/ml, growth rate is measured as 1/h, and Qp is calculated as μg/e6/day.

[3] = tested on: α-GDF-8 cells (CHO cells engineered to express a monoclonal antibody against GDF-8); assay: Cell growth of α-GDF-8 cells in culture dishes with varying 2-deoxyglucose (Example 1); format: cell-based, Chinese Hamster
Protocol: Materials and Methods: Chinese Hamster Ovary (“CHO”) cells engineered to express a monoclonal antibody against growth and differentiation factor 8 (“α-GDF-8 cells”) (see […] et al., Neutralizing Antibodies Against GDF-8 and Uses Therefor, US20040142382 A1) were grown in culture dishes in Medium 1 supplemented with glucose to a final initial concentration of 9 g/L with varying concentrations of 2-deoxyglucose.

α-GDF-8 cells [4] = assay: α-GDF-8 cells in 1 L Bioreactors, shift on day 5 or day 6 (Example 4); format: cell-based, Chinese Hamster
Protocol: Materials and Methods: α-GDF-8 cells were grown in Medium 2 in 1 L Bioreactors and fed with Medium 3. Some of the cultures were supplemented with 0.5 g/L 2-deoxyglucose at the beginning of the culture. The cells were fed with either 3 g/L glucose or 0.3 g/L 2-deoxyglucose on day 4 and with either 10% feed medium (by volume) or 10% feed medium (by volume) supplemented with 0.2 g/L 2-deoxyglucose on day 5. The cultures were shifted from 37° Celsius to 31° Celsius on either day 5 (“early shift”) or day 6 (“late shift”). Additional feeds were provided on days 7 and 10. [table]

α-GDF-8 cells [5] = assay: α-GDF-8 cells in 1 L Bioreactors, shift on day 4 or day 6 (Example 3); format: cell-based, Chinese Hamster
Protocol: Materials and Methods: α-GDF-8 cells were grown in Medium 2 in 1 L Bioreactors and fed with Medium 3. Some of the cultures were supplemented with 0.5 g/L 2-deoxyglucose at the beginning of the culture. The cultures were shifted from 37° Celsius to 31° Celsius on either day 4 (“early shift”) or day 6 (“late shift”). [table]

[6] = first passage, 0.25 g/L deoxyglucose, 9 g/L glucose
[7] = first passage, 0.5 g/L deoxyglucose, 6 g/L glucose
[8] = first passage, 0.5 g/L deoxyglucose, 9 g/L glucose
[9] = first passage, 1 g/L deoxyglucose, 9 g/L glucose
[10] = second passage, 0.25 g/L deoxyglucose, 9 g/L glucose
[11] = second passage, 0.5 g/L deoxyglucose, 6 g/L glucose
[12] = second passage, 0.5 g/L deoxyglucose, 9 g/L glucose
[13] = second passage, 1 g/L deoxyglucose, 6 g/L glucose
[14] = second passage, 1 g/L deoxyglucose, 9 g/L glucose
[15] = 0.5 g/L 2-deoxyglucose, late shift (day 6)
[16] = 0.5 g/L 2-deoxyglucose, early shift (day 4)

SMILES: O=CC[C@@H](O)[C@H](O)[C@H](O)CO [2-deoxyglucose]
- lactate accumulation vs cultures lacking 2-deoxyglucose (α-GDF-8 cells [1]; glucose above approximately 8 g/L, shift day 5): significantly lower
- α-GDF-8 titer vs culture lacking 2-deoxyglucose (α-GDF-8 cells [1]; high glucose, by day 14): slightly higher
- cell density vs culture lacking 2-deoxyglucose (α-GDF-8 cells [1]; high glucose, middle stage of the culture): slightly higher
- overall integrated viable cell density vs cells without 2-deoxyglucose (α-GDF-8 cells [1]; high glucose, shifted one day later): higher
- glucose/energy flux (rats): reduces glucose/energy flux
- effect on accumulation of lactate (α-GDF-8 cells [2]; culture dishes, dose-dependent): reduced the accumulation of lactate in the culture in a dose-dependent manner
- effect on specific growth rate (α-GDF-8 cells [2]; culture dishes, dose-dependent): negatively affected
- effect on α-GDF-8 titer (α-GDF-8 cells [2]; culture dishes, dose-dependent): reduced the α-GDF-8 titer in a dose-dependent manner
- Gluc (α-GDF-8 cells [2]; [6]): 7.55
- Qlact (α-GDF-8 cells [2]; [6]): 0.899 mg/e6/day
- c.d (end) (α-GDF-8 cells [2]; [6]): 1.3 10^6 cells/ml
- lact (α-GDF-8 cells [2]; [6]): 1.53 g/L
- viab (α-GDF-8 cells [2]; [6]): 99.7
- μ (specific growth rate) (α-GDF-8 cells [2]; [6]): 0.032 h⁻¹
- Gluc (α-GDF-8 cells [2]; [7]): 5.21
- Qlact (α-GDF-8 cells [2]; [7]): 0.701 mg/e6/day
- c.d (end) (α-GDF-8 cells [2]; [7]): 1.24 10^6 cells/ml
- lact (α-GDF-8 cells [2]; [7]): 1.2 g/L
- viab (α-GDF-8 cells [2]; [7]): 99.1
- μ (specific growth rate) (α-GDF-8 cells [2]; [7]): 0.03 h⁻¹
- Gluc (α-GDF-8 cells [2]; [8]): 7.88
- Qlact (α-GDF-8 cells [2]; [8]): 0.727 mg/e6/day
- c.d (end) (α-GDF-8 cells [2]; [8]): 1.12 10^6 cells/ml
- lact (α-GDF-8 cells [2]; [8]): 1.22 g/L
- viab (α-GDF-8 cells [2]; [8]): 99.3
- μ (specific growth rate) (α-GDF-8 cells [2]; [8]): 0.028 h⁻¹
- Gluc (α-GDF-8 cells [2]; [9]): 8.13
- Qlact (α-GDF-8 cells [2]; [9]): 0.553 mg/e6/day
- c.d (end) (α-GDF-8 cells [2]; [9]): 1.05 10^6 cells/ml
- lact (α-GDF-8 cells [2]; [9]): 0.9 g/L
- viab (α-GDF-8 cells [2]; [9]): 99.7
- μ (specific growth rate) (α-GDF-8 cells [2]; [9]): 0.027 h⁻¹
- Gluc (α-GDF-8 cells [2]; [10]): 7.25
- Qlact (α-GDF-8 cells [2]; [10]): 0.576 mg/e6/day
- Qp (α-GDF-8 cells [2]; [10]): 15.477 μg/e6/day
- c.d (end) (α-GDF-8 cells [2]; [10]): 3.2 10^6 cells/ml
- lact (α-GDF-8 cells [2]; [10]): 2.17 g/L
- titer (α-GDF-8) (α-GDF-8 cells [2]; [10]): 58.28 mg/L
- viab (α-GDF-8 cells [2]; [10]): 99.5
- μ (specific growth rate) (α-GDF-8 cells [2]; [10]): 0.035 h⁻¹
- Gluc (α-GDF-8 cells [2]; [11]): 5.04
- Qlact (α-GDF-8 cells [2]; [11]): 0.415 mg/e6/day
- Qp (α-GDF-8 cells [2]; [11]): 13.135 μg/e6/day
- c.d (end) (α-GDF-8 cells [2]; [11]): 2.6 10^6 cells/ml
- lact (α-GDF-8 cells [2]; [11]): 1.36 g/L
- titer (α-GDF-8) (α-GDF-8 cells [2]; [11]): 43 mg/L
- viab (α-GDF-8 cells [2]; [11]): 99
- μ (specific growth rate) (α-GDF-8 cells [2]; [11]): 0.033 h⁻¹
- Gluc (α-GDF-8 cells [2]; [12]): 7.65
- Qlact (α-GDF-8 cells [2]; [12]): 0.506 mg/e6/day
- Qp (α-GDF-8 cells [2]; [12]): 14.252 μg/e6/day
- c.d (end) (α-GDF-8 cells [2]; [12]): 2.8 10^6 cells/ml
- lact (α-GDF-8 cells [2]; [12]): 1.79 g/L
- titer (α-GDF-8) (α-GDF-8 cells [2]; [12]): 50.37 mg/L
- viab (α-GDF-8 cells [2]; [12]): 99.6
- μ (specific growth rate) (α-GDF-8 cells [2]; [12]): 0.033 h⁻¹
- Gluc (α-GDF-8 cells [2]; [13]): 6.51
- Qlact (α-GDF-8 cells [2]; [13]): 0.290 mg/e6/day
- Qp (α-GDF-8 cells [2]; [13]): 12.038 μg/e6/day
- c.d (end) (α-GDF-8 cells [2]; [13]): 1.5 10^6 cells/ml
- lact (α-GDF-8 cells [2]; [13]): 0.68 g/L
- titer (α-GDF-8) (α-GDF-8 cells [2]; [13]): 28.22 mg/L
- viab (α-GDF-8 cells [2]; [13]): 98.6
- μ (specific growth rate) (α-GDF-8 cells [2]; [13]): 0.027 h⁻¹
- Gluc (α-GDF-8 cells [2]; [14]): 9
- Qlact (α-GDF-8 cells [2]; [14]): 0.290 mg/e6/day
- Qp (α-GDF-8 cells [2]; [14]): 12.400 μg/e6/day
- c.d (end) (α-GDF-8 cells [2]; [14]): 1.9 10^6 cells/ml
- lact (α-GDF-8 cells [2]; [14]): 0.98 g/L
- titer (α-GDF-8) (α-GDF-8 cells [2]; [14]): 34.85 mg/L
- viab (α-GDF-8 cells [2]; [14]): 99
- μ (specific growth rate) (α-GDF-8 cells [2]; [14]): 0.028 h⁻¹
- Qlact (α-GDF-8 cells [2]; second passage, 1 g/L deoxyglucose, 9 g/L glucose, listed as 2-Deoxyglucose): 0.349 mg/e6/day
- effect on viability of the cells (α-GDF-8 cells [2]; up to a ratio of 2-deoxyglucose to glucose of 1 to 6): largely unaffected
- specific growth rate (μ) ([3]; 1 g/L 2-deoxyglucose, 9 g/L glucose (ratio 1:9)): over 0.02 l/h
- specific growth rate (μ) ([3]; 2.5 g/L 2-deoxyglucose, 9 g/L glucose): approximately 0.015 l/h
- effect of increasing amounts on specific growth rate ([3]; 9 g/L glucose): reduced the specific growth rate in a dose-dependent manner
- final lactate concentration vs early shifted cultures (α-GDF-8 cells [4]; [15]): lower
- α-GDF-8 produced per cell vs other three conditions (α-GDF-8 cells [4]; [15]): less α-GDF-8 per cell
- cell density vs the other three conditions (α-GDF-8 cells [4]; 0.5 g/L 2-deoxyglucose, late shift (day 6), from approximately day 5): significantly higher
- glucose uptake (α-GDF-8 cells [4]; 2-deoxyglucose in the culture medium, early and late shift): decrease
- overall titer of α-GDF-8 vs other culture conditions (α-GDF-8 cells [4]; all four culture conditions): similar
- final titer vs culture lacking 2-deoxyglucose (α-GDF-8 cells [5]; [16]): slightly higher
- lactate levels vs culture lacking 2-deoxyglucose (α-GDF-8 cells [5]; [16]): slightly lower
- cell density at the time of the shift (α-GDF-8 cells [5]; [15]): approximately 18 ×e^6/mL
- final titer vs culture lacking 2-deoxyglucose (α-GDF-8 cells [5]; [15]): slightly higher
- lactate level at the time of the shift (α-GDF-8 cells [5]; [15]): approximately 6 g/L
- lactate levels vs culture lacking 2-deoxyglucose (α-GDF-8 cells [5]; [15]): slightly lower
- viability vs late shifted cells without 2-deoxyglucose (α-GDF-8 cells [5]; [15]): significantly higher
- cell density vs the other three conditions (α-GDF-8 cells [5]; 0.5 g/L 2-deoxyglucose, late shift (day 6), from approximately day 4): significantly higher
- lactate level at the time of the shift (α-GDF-8 cells [5]; early shift (day 4), stated for the two early shifted cultures, with and without 2-deoxyglucose): 4 to 5 g/L
